For 41 compounds, IC50 results are on record in US11555012B2 (Nimbus Artemis, Inc., priority 2018, dated 2023).

The assay deals with ACL (Homo sapiens (Human), UniProt P53396). As to the kind of experiment: ADP-Glo Assay. For orientation: ADP-Glo turns the ADP formed in a reaction into a luminescent signal.
ACL, sequence (P53396 other isoform, or with tags, fused parts or gaps isoform P53396-2): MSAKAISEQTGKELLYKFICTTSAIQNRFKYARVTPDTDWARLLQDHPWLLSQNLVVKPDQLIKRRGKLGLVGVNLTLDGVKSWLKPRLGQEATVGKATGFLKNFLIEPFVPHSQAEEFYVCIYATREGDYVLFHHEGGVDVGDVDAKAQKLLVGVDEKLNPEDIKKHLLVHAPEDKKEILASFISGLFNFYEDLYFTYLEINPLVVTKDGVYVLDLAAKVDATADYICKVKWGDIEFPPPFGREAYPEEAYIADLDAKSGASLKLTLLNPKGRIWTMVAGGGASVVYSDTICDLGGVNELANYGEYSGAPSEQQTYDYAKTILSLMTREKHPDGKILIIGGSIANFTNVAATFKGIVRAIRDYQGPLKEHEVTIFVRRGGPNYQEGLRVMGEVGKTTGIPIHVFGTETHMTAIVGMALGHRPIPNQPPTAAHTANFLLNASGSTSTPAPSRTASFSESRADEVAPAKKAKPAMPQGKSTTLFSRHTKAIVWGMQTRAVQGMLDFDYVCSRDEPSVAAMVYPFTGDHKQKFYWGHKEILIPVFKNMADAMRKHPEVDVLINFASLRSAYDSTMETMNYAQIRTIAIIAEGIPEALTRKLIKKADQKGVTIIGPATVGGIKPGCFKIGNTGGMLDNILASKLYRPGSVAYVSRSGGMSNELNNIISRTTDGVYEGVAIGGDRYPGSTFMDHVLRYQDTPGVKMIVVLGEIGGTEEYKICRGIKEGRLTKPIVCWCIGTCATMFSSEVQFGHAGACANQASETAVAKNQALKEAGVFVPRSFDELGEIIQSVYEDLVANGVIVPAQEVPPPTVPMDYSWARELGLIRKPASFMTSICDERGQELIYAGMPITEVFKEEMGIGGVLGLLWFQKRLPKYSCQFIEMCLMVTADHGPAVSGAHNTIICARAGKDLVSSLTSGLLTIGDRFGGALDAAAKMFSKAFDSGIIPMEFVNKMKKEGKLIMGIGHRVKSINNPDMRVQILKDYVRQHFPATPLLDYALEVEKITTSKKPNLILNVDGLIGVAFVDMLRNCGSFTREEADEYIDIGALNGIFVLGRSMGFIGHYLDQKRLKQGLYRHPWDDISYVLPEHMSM
Take `O=S(=O)(Nc1cc(-c2ccccc2)c(F)cc1F)c1cccc2c1OCCO2` [I-383, N-[4,6-difluoro-[1,1-biphenyl]-3-yl]-2,3-dihydro-1,4-benzodioxine-5-sulfonamide]: the IC50 – broadly, the concentration at which inhibition is half-maximal – was more than 20 µM. `COc1ccc(C(=O)N2CCC2)cc1S(=O)(=O)Nc1cc(-c2ccccc2)c(F)cc1F` [I-384, 5-(azetidine-1-carbonyl)-N-[4,6-difluoro-[1,1-biphenyl]-3-yl]-2-methoxybenzene-1-sulfonamide] displayed an IC50 of more than 20 µM. In the case of `CS(=O)(=O)c1ccccc1S(=O)(=O)Nc1cc(-c2ccccc2)c(F)cc1F` [I-385, N-[4,6-difluoro-[1,1-biphenyl]-3-yl]-2-methanesulfonylbenzene-1-sulfonamide], the 50% inhibitory concentration (IC50) is more than 20 µM. In the case of `O=C(c1cc(Cl)cc(S(=O)(=O)Nc2cc(-c3ccccc3)c(F)cc2F)c1)N1CCC1` [I-386, 3-(azetidine-1-carbonyl)-5-chloro-N-(4,6-difluoro-[1,1′-biphenyl]-3-yl)benzenesulfonamide], the IC50 was more than 20 µM. Turning to `CC(C)(C)OC(=O)COc1c(Cl)cc(C(=O)N2CCC2)cc1S(=O)(=O)Nc1cc(-c2ccccc2)c(F)cc1F` [I-387, tert-butyl 2-[4-(azetidine-1-carbonyl)-2-chloro-6-([4,6-difluoro-[1,1-biphenyl]-3-yl]sulfamoyl)phenoxy]acetate], the IC50 was more than 20 µM. Next, `CO[C@@H]1CCN(C(=O)c2cc(Cl)cc(S(=O)(=O)Nc3cc(-c4ccccc4)c(F)cc3F)c2)C1` [I-388, (R)-3-chloro-N-(4,6-difluoro-[1,1′-biphenyl]-3-yl)-5-(3-methoxypyrrolidine-1-carbonyl)benzenesulfonamide]: more than 20 µM.

`CO[C@H]1CCN(C(=O)c2cc(Cl)cc(S(=O)(=O)Nc3cc(-c4ccccc4)c(F)cc3F)c2)C1` [I-389, (S)-3-chloro-N-(4,6-difluoro-[1,1′-biphenyl]-3-yl)-5-(3-methoxypyrrolidine-1-carbonyl)benzenesulfonamide] yielded an IC50 of more than 20 µM. On to `O=S(=O)(Nc1cc(-c2ccccc2)c(F)cc1F)c1cccc2nsnc12` [I-390, N-(4,6-difluoro-[1,1 biphenyl]-3-yl)benzo[c][1,2,5]thiadiazole-4-sulfonamide], for which the IC50 was more than 20 µM. With `COc1ccc(-c2ccccc2)cc1N(Cc1cc(Cl)cc(Cl)c1O)S(C)(=O)=O` [I-391, N-(3,5-dichloro-2-hydroxybenzyl)-N-(4-methoxy-[1,1′-biphenyl]-3-yl)methanesulfonamide], the IC50 was more than 20 µM. Compound `CS(=O)(=O)c1cc(Cl)cc(S(=O)(=O)Nc2cc(-c3ccccc3)c(F)cc2F)c1` [I-392, 3-chloro-N-(4,6-difluoro-[1,1′-biphenyl]-3-yl)-5-(methylsulfonyl)benzenesulfonamide] yielded an IC50 of more than 20 µM. For the compound `O=S(=O)(Nc1ccc(-c2ccccc2)cc1F)c1cccc2ncoc12` [I-393, N-(3-fluoro-[1,1′-biphenyl]-4-yl)benzo[d] oxazole-7-sulfonamide], the concentration for half-maximal inhibition (IC50) is more than 20 µM. For `COc1ccc(-c2ccccc2)cc1NS(=O)(=O)c1cc(Cl)cc(Cl)c1F` [I-394, 3,5-dichloro-2-fluoro-N-[4-methoxy-[1,1-biphenyl]-3-yl]benzene-1-sulfonamide] the value was more than 20 µM; for `O=S(=O)(Nc1cc(N2CCNCC2)c(F)cc1F)c1cc(Cl)cc(Cl)c1O` [I-395, 3,5-dichloro-N-(2,4-difluoro-5-(piperazin-1-yl)phenyl)-2-hydroxybenzenesulfonamide], more than 20 µM; for `COc1ccc(-c2ccccc2)cc1NS(=O)(=O)c1cccc(C#N)c1` [I-396, 3-cyano-N-(2-methoxy-5-phenylphenyl) benzene-1-sulfonamide], more than 20 µM. `COc1ccc(-c2ccccc2)cc1N(Cc1ccccc1)S(=O)(=O)c1c(C)c(Cl)cc(Cl)c1OCc1ccccc1` [I-397, N-benzyl-2-(benzyloxy)-3,5-dichloro-N-(4-methoxy-[1,1′-biphenyl]-3-yl)-6-methylbenzenesulfonamide] came in with an IC50 of more than 20 µM. Next, `COc1ccc(-c2ccccc2)cc1NS(=O)(=O)c1cc(Cl)cc(Cl)c1C(=O)O` [I-398, 2,4-dichloro-6-(N-(4-methoxy-[1,1′-biphenyl]-3-yl)sulfamoyl) Benzoic Acid]: more than 20 µM.

Consider `O=C(O)CCc1cc(Cl)c(O)c(S(=O)(=O)Nc2cc(F)cc(F)c2)c1` [I-399, 3-(3-chloro-5-(N-(3,5-difluorophenyl)sulfamoyl)-4-hydroxyphenyl) Propanoic Acid], for which the IC50 is more than 20 µM. `COc1ccc(-c2ccccc2)cc1NS(=O)(=O)c1c(C)nn(C)c1Cl` [I-400, 5-chloro-N-(4-methoxy-[1,1′-biphenyl]-3-yl)-1,3-dimethyl-1H-pyrazole-4-sulfonamide] had an IC50 of more than 20 µM. In the case of `COc1ccc(-c2ccccc2)cc1N(C)S(=O)(=O)c1cc(Cl)cc(Cl)c1OC` [I-401, 3,5-dichloro-2-methoxy-N-(4-methoxy-[1,1′-biphenyl]-3-yl)-N-methylbenzenesulfonamide], the IC50 is more than 20 µM. Compound `COc1ccc(-c2ccccc2)cc1NS(=O)(=O)c1cc(Cl)cc(Cl)c1OC` [I-402, 3,5-dichloro-2-methoxy-N-(4-methoxy-[1,1′-biphenyl]-3-yl)benzenesulfonamide] showed an IC50 of more than 20 µM. Consider `COc1cc(-c2ccccc2)ccc1NS(=O)(=O)c1cc(Cl)cc(Cl)c1C` [I-403, 3,5-dichloro-N-(3-methoxy-[1,1′-biphenyl]-4-yl)-2-methylbenzenesulfonamide], for which the IC50 is more than 20 µM. Consider `COc1ccc(C(=O)O)cc1NS(=O)(=O)c1cc(Cl)cc(Cl)c1O` [I-404, 3-((3,5-dichloro-2-hydroxyphenyl)sulfonamido)-4-methoxybenzoic acid], for which the half-maximal inhibitory concentration (IC50) is more than 20 µM. Next, `COc1ccc(-c2ccccc2)cc1NS(=O)(=O)c1cc(Cl)cc(Cl)c1` [I-405, 3,5-dichloro-N-(4-methoxy-[1,1′-biphenyl]-3-yl)benzenesulfonamide]: more than 20 µM.

In turn, `COc1ccc(-c2ccccc2)cc1NS(=O)(=O)c1cccc(C(=O)O)c1` [I-406, 3-(N-(4-methoxy-[1,1′-biphenyl]-3-yl)sulfamoyl)benzoic acid] registered an IC50 of more than 20 µM.

`COc1ccc(-c2ccccc2)cc1NS(=O)(=O)c1cc(C(=O)O)cs1` [I-408, 5-(N-(4-methoxy-[1,1′-biphenyl]-3-yl)sulfamoyl) thiophene-3-carboxylic acid]: the IC50 is more than 20 µM. The compound `COc1ccc(-c2ccccc2)cc1NS(=O)(=O)c1ccc(C#N)cc1` [I-410, 4-cyano-N-(2-methoxy-5-phenylphenyl)benzene-1-sulfonamide] registered an IC50 of more than 20 µM.

`COc1ccc(C(=O)OC2CC2)cc1NS(=O)(=O)c1cc(Cl)cc(Cl)c1O` [I-411, cyclopropyl 3-((3,5-dichloro-2-hydroxyphenyl)sulfonamido)-4-methoxybenzoate] came in with an IC50 of more than 20 µM.

For `O=C(O)c1ccc(NS(=O)(=O)c2cc(Cl)cc(Cl)c2O)cc1Cl` [I-412, 2-chloro-4-[(3,5-dichloro-2-hydroxybenzene)sulfonamido]benzoic acid], the concentration for half-maximal inhibition (IC50) is more than 20 µM. Compound `COc1c(Cl)cc(Cl)cc1S(=O)(=O)Nc1cc(C(=O)O)ccc1F` [I-413, 3-[(3,5-dichloro-2-methoxybenzene)sulfonamido]-4-fluorobenzoic Acid] registered an IC50 of more than 20 µM.

In turn, `COc1ccc(-c2ccccc2)cc1NS(=O)(=O)c1cc(Cl)cc(Cl)c1N` [I-414, 2-amino-3,5-dichloro-N-(2-methoxy-5-phenylphenyl) benzene-1-sulfonamide] returned an IC50 of more than 20 µM. `Cn1cc(Cl)cc(S(=O)(=O)Nc2cc(-c3ccccc3)ccc2F)c1=O` [I-415, 5-chloro-N-(2-fluoro-5-phenylphenyl)-1-methyl-2-oxo-1,2-dihydropyridine-3-sulfonamide] had an IC50 of more than 20 µM. For `COc1ccc(-c2ccccc2)cc1NS(=O)(=O)c1ccc(O)c(Cl)c1` [I-416, 3-chloro-4-hydroxy-N-(2-methoxy-5-phenylphenyl)benzene-1-sulfonamide] the value was more than 20 µM.

In the case of `COc1ccc(-c2ccccc2)cc1N(Cc1ccccc1)S(=O)(=O)c1cn[nH]c1` [I-417, N-benzyl-N-(2-methoxy-5-phenylphenyl)-1H-pyrazole-4-sulfonamide], the half-maximal inhibitory concentration (IC50) is more than 20 µM. For `N#Cc1ccc(F)c(S(=O)(=O)Nc2cc(-c3ccccc3)ccc2F)c1` [I-418, 5-cyano-2-fluoro-N-(2-fluoro-5-phenylphenyl) benzene-1-sulfonamide] the value was more than 20 µM; for `N#Cc1cccc(S(=O)(=O)Nc2cc(-c3ccccc3)ccc2F)c1` [I-419, 3-cyano-N-(2-fluoro-5-phenylphenyl)benzene-1-sulfonamide], more than 20 µM. In the case of `O=C(COc1c(Br)cc(Cl)cc1S(=O)(=O)N(Cc1ccccc1)c1cc(-c2ccccc2)ccc1F)OCc1ccccc1` [I-420, benzyl 2-(2-(N-benzyl-N-(4-fluoro-[1,1′-biphenyl]-3-yl)sulfamoyl)-6-bromo-4-chlorophenoxy)acetate], the IC50 is more than 20 µM. For the compound `COC(=O)c1cccc(S(=O)(=O)Nc2cc(-c3ccccc3)ccc2OC)c1` [I-421, methyl 3-(N-(4-methoxy-[1,1′-biphenyl]-3-yl)sulfamoyl)benzoate], the concentration for half-maximal inhibition (IC50) was more than 20 µM. The compound `COc1ccc(-c2ccccc2)cc1NS(=O)(=O)c1cc(Cl)cc(C#N)c1` [I-422, 3-chloro-5-cyano-N-(2-methoxy-5-phenylphenyl)benzene-1-sulfonamide] returned an IC50 of more than 20 µM.

As for `CS(=O)(=O)NC(=O)c1ccc(F)c(NS(=O)(=O)c2cc(Cl)cc(Cl)c2O)c1` [I-423, 3-[(3,5-dichloro-2-hydroxybenzene)sulfonamido]-4-fluoro-N-methanesulfonylbenzamide], the half-maximal inhibitory concentration (IC50) is more than 20 µM.

`O=S(=O)(Nc1cc(-c2ccccc2)ccc1F)c1cc(-c2nn[nH]n2)ccc1F` [I-424, 2-fluoro-N-(2-fluoro-5-phenylphenyl)-5-(2H-1,2,3,4-tetrazol-5-yl)benzene-1-sulfonamide] gave a 50% inhibitory concentration (IC50) of more than 20 µM. Next, `COc1ccc(-c2cccnc2)cc1NS(=O)(=O)c1cc(C(=O)O)cc(Cl)c1OC` [I-425, 3-chloro-4-methoxy-5-(N-(2-methoxy-5-(pyridin-3-yl)phenyl)sulfamoyl)benzoic Acid]: more than 20 µM.
